Publication PMC4104029, “Mechanism of Action of Compound-13: An α1-Selective Small Molecule Activator of AMPK” (Chemistry & Biology, 2014)

How the values were obtained:
adenylate kinase = test: Adenylate kinase assay; format: biochemical; conditions: concentrations up to 100 μM; data not shown
Experimental: (§1) Additional enzyme assays. Glycogen phosphorylase (EC 2.4.1.1) was assayed in the physiological direction in reactions containing 20 mM BES pH 6.8, 20 mM phosphate, 1 mM NADP+, 0.5 mM MgCl2, 0.1 % glycogen, 4 µM glucose-1,6-bisphosphate, 0.5 mM DTT, 0.025 % BSA, 0.6 U/ml phosphoglucomutase and 3 U/ml glucose-6-phosphate dehydrogenase (G6PDH). FBP1 (EC 3.1.3.11) was assayed in reactions containing 50 mM TES pH 7.4, 0.1 […]
(§2) mM 2-mercaptoethanol, 25 µM fructose-1,6-bisphosphate, 0.8 U/ml phosphoglucoisomerase and 0.5 U/ml G6PDH. PFK1 (EC 2.7.1.11) was assayed in reactions containing 50 mM TES pH 7.4, 2 mM MgCl2, 0.05 % BSA, 2 mM 2-mercaptoethanol, 0.5 mM fructose-6-phosphate, 1 mM ATP, 0.2 mM NADH, 0.5 U/ml aldolase, 15 U/ml triosephosphate isomerase and 2 U/ml α-glycerophosphate dehydrogenase. […] All assays were performed in a final volume of 250 µl and were monitored by changes in fluorescence (FBP1 - λex 340nm, λem 450nm) or A340. […] Liberated phosphate was determined using malachite green reagent. […] The formation of pyrophosphate (PPi) was monitored by reduction of PPi-molybdate complexes using 2-mercaptoethanol and Fiske-Subbarow reducer (Kuang, et al., 2007). […]
(§3) Tricistronic expression vectors were constructed using a strategy inspired by Neumann et al (Neumann, et al., 2003). […] The open reading frame of AMPKα1 and AMPKα2 was inserted after the 6×His tag as a Bamh1-Not1 fragment. […]

5′-nucleotidase = test: 5′-Nucleotidase assay; format: biochemical; conditions: concentrations up to 100 μM; data not shown
Experimental: as §1, §2, §3

[1] = test system: primary mouse hepatocytes; test: Fatty acid esterification, [3H]palmitic acid incorporation into triglycerides; format: cell-based; conditions: 30 min treatment, then 60 min labeling
Experimental: Figure 5 C13 Inhibits Lipid Synthesis and Fatty Acid Esterification in Mouse Hepatocytes in an AMPK-Dependent Manner (A) Mouse hepatocytes were treated with the indicated concentrations of C13 and labeled with [1-^14C]acetate for 3 hr. A769662 (100 μM) and AICAR (0.5 mM) were included as positive controls. Rates of fatty acid and sterol synthesis were estimated by incorporation into saponifiable and nonsaponifiable lipids. Results are expressed as the mean acetate incorporated in micromoles per gram-hour ± SD and are representative of two independent experiments. (B) Mouse hepatocytes were treated with the indicated compounds for 30 min and labeled with media containing 0.5 mM palmitic acid (1 mCi⋅mmol^−1 [9,10-^3H]palmitic acid) for an additional 60 min. Incorporation into triglyceride was determined as described in Experimental Procedures and results are expressed as palmitate incorporated in micromoles per gram-hour ± SD and are representative of three independent experiments. […] Results are expressed as percentage WT vehicle and represent the mean ± SD for three independent experiments. […]
Fatty acid esterification was determined by labeling primary hepatocytes with [9,10-^3H(N)]palmitate. […] Lipids were stained with iodine vapor and triglyceride eluted from TLC scrapings with 1:1 ethanol:Triton X-100, and the incorporation of [^3H] was determined by scintillation counting.

β1-KO hepatocytes = test: AMPK signaling, western blotting; format: cell-based, mouse; conditions: 1 hr; A769662 100 μM
Experimental: (§4) Figure 7 C13 Activates Both β1 and β2 Complexes in Mouse Hepatocytes (A) Hepatocytes from WT, AMPKβ1^−/−, and AMPKβ2^−/− mice were incubated with the indicated concentrations of C13 for 1 hr. A769662 (100 μM) was included as a positive control. Lysates were analyzed using western blotting with the indicated antibodies. (B) Mouse hepatocytes from the indicated genotypes were treated with the indicated concentrations of C13 and labeled with [^3H]acetate for 4 hr. Lipogenesis was estimated from the incorporation of acetate into total lipids. Results are expressed as the mean acetate incorporated in micromoles per gram-hour ± SD.

WT and β2-KO hepatocytes = test: AMPK signaling, western blotting; format: cell-based, mouse; conditions: 1 hr; A769662 100 μM
Experimental: as §4

O=P(O)(O)c1ccc(-c2cc(O)on2)o1 [Compound C2, 5-(5-hydroxyl-isoxazol-3-yl)-furan-2-phosphonic acid]
effect on enzyme activity (adenylate kinase): None of these enzymes were affected | effect on enzyme activity (5′-nucleotidase): None of these enzymes were affected

CC(C)C(=O)OCOP(=O)(OCOC(=O)C(C)C)c1ccc(C2=NOC(=O)C2)o1 [Compound C13]
fatty acid esterification [1]: inhibited | stimulation of AMPK (Thr172 phosphorylation) (β1-KO hepatocytes): modestly stimulated | phosphorylation of Thr172 and ACC, as well as Raptor (WT and β2-KO hepatocytes): robustly stimulated
